Test results from PubChem BioAssay (NCI).
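Method: 48-hour compound exposure of cells in 96-well plates, five concentrations, linear interpolation of endpoints. GI50 = concentration required for 50% inhibition of growth. TGI is the concentration that stops growth completely.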

Tests used:
Experiment in all cases: inhibition of tumour cell growth, NCI panel, 48 h
786-0 renal = tested on: 786-0 renal
A498 renal = tested on: A498 renal
A549 NSCLC = tested on: A549 NSCLC
ACHN renal = tested on: ACHN renal
BT-549 breast = tested on: BT-549 breast
CAKI-1 renal = tested on: CAKI-1 renal
CCRF-CEM leukemia = tested on: CCRF-CEM leukemia
COLO 205 colon = tested on: COLO 205 colon
DU-145 prostate = tested on: DU-145 prostate
EKVX NSCLC = tested on: EKVX NSCLC
HCC-2998 colon = tested on: HCC-2998 colon
HCT-116 colon = tested on: HCT-116 colon
HCT-15 colon = tested on: HCT-15 colon
HL-60(TB) leukemia = tested on: HL-60(TB) leukemia
HOP-62 NSCLC = tested on: HOP-62 NSCLC
HOP-92 NSCLC = tested on: HOP-92 NSCLC
HS 578T breast = tested on: HS 578T breast
HT29 colon = tested on: HT29 colon
IGROV1 ovarian = tested on: IGROV1 ovarian
K-562 leukemia = tested on: K-562 leukemia
KM12 colon = tested on: KM12 colon
LOX IMVI melanoma = tested on: LOX IMVI melanoma
M14 melanoma = tested on: M14 melanoma
MALME-3M melanoma = tested on: MALME-3M melanoma
MCF7 breast = tested on: MCF7 breast
MDA-MB-231 breast = tested on: MDA-MB-231 breast
MDA-MB-435 = tested on: MDA-MB-435
MOLT-4 leukemia = tested on: MOLT-4 leukemia
NCI-H226 lung = tested on: NCI-H226 lung
NCI-H23 lung = tested on: NCI-H23 lung
NCI-H460 lung = tested on: NCI-H460 lung
NCI-H522 lung = tested on: NCI-H522 lung
NCI/ADR-RES ovarian = tested on: NCI/ADR-RES ovarian
OVCAR-3 ovarian = tested on: OVCAR-3 ovarian
OVCAR-4 ovarian = tested on: OVCAR-4 ovarian
OVCAR-5 ovarian = tested on: OVCAR-5 ovarian
OVCAR-8 ovarian = tested on: OVCAR-8 ovarian
PC-3 prostate = tested on: PC-3 prostate
RPMI-8226 leukemia = tested on: RPMI-8226 leukemia
RXF 393 renal = tested on: RXF 393 renal
SF-268 CNS = tested on: SF-268 CNS
SF-295 CNS = tested on: SF-295 CNS
SF-539 CNS = tested on: SF-539 CNS
SK-MEL-2 melanoma = tested on: SK-MEL-2 melanoma
SK-MEL-28 melanoma = tested on: SK-MEL-28 melanoma
SK-MEL-5 melanoma = tested on: SK-MEL-5 melanoma
SK-OV-3 ovarian = tested on: SK-OV-3 ovarian
SN12C renal = tested on: SN12C renal
SNB-19 CNS = tested on: SNB-19 CNS
SNB-75 CNS = tested on: SNB-75 CNS
SR leukemia = tested on: SR leukemia
SW-620 colon = tested on: SW-620 colon
T-47D breast = tested on: T-47D breast
TK-10 renal = tested on: TK-10 renal
U251 CNS = tested on: U251 CNS
UACC-257 melanoma = tested on: UACC-257 melanoma
UACC-62 melanoma = tested on: UACC-62 melanoma
UO-31 renal = tested on: UO-31 renal

O=C(CC1(O)C(=O)N(Cc2ccccc2)c2ccc(Br)cc21)c1ccc(C(=O)NCC2CCC3(CC2)OOC2(CCCCC2)OO3)cc1 (stereo unspecified)
GI50 (786-0 renal): 173 nM | TGI (786-0 renal): 334 nM | GI50 (A498 renal): 2220 nM | TGI (A498 renal): 6860 nM | GI50 (A549 NSCLC): 224 nM | TGI (A549 NSCLC): 496 nM | GI50 (ACHN renal): 239 nM | TGI (ACHN renal): 598 nM | GI50 (BT-549 breast): 3260 nM | TGI (BT-549 breast): 20100 nM | GI50 (CAKI-1 renal): 557 nM | TGI (CAKI-1 renal): 1060 nM | GI50 (CCRF-CEM leukemia): 350 nM | TGI (CCRF-CEM leukemia): 1110 nM | GI50 (COLO 205 colon): 2040 nM | TGI (COLO 205 colon): 5950 nM | GI50 (DU-145 prostate): 191 nM | TGI (DU-145 prostate): 354 nM | GI50 (EKVX NSCLC): 437 nM | TGI (EKVX NSCLC): 1590 nM | GI50 (HCC-2998 colon): 2190 nM | TGI (HCC-2998 colon): 5100 nM | GI50 (HCT-116 colon): 2080 nM | TGI (HCT-116 colon): 8180 nM | GI50 (HCT-15 colon): 1150 nM | TGI (HCT-15 colon): 4670 nM | GI50 (HL-60(TB) leukemia): 330 nM | TGI (HL-60(TB) leukemia): 1120 nM | GI50 (HOP-62 NSCLC): 237 nM | TGI (HOP-62 NSCLC): 619 nM | GI50 (HOP-92 NSCLC): 213 nM | TGI (HOP-92 NSCLC): 468 nM | GI50 (HS 578T breast): 2930 nM | TGI (HS 578T breast): 15900 nM | GI50 (HT29 colon): 615 nM | TGI (HT29 colon): 2060 nM | GI50 (IGROV1 ovarian): 278 nM | TGI (IGROV1 ovarian): 799 nM | GI50 (K-562 leukemia): 1690 nM | TGI (K-562 leukemia): 8280 nM | GI50 (KM12 colon): 435 nM | TGI (KM12 colon): 1700 nM | GI50 (LOX IMVI melanoma): 152 nM | TGI (LOX IMVI melanoma): 304 nM | GI50 (M14 melanoma): 4310 nM | TGI (M14 melanoma): 30600 nM | GI50 (MALME-3M melanoma): 594 nM | TGI (MALME-3M melanoma): 2050 nM | GI50 (MCF7 breast): 2650 nM | TGI (MCF7 breast): > 87900 nM | GI50 (MDA-MB-231 breast): 549 nM | TGI (MDA-MB-231 breast): 2030 nM | GI50 (MDA-MB-435): 647 nM | TGI (MDA-MB-435): 1930 nM | GI50 (MOLT-4 leukemia): 1980 nM | TGI (MOLT-4 leukemia): 6540 nM | GI50 (NCI-H226 lung): 5060 nM | TGI (NCI-H226 lung): 19300 nM | GI50 (NCI-H23 lung): 237 nM | TGI (NCI-H23 lung): 595 nM | GI50 (NCI-H460 lung): 488 nM | TGI (NCI-H460 lung): 1660 nM | GI50 (NCI-H522 lung): 214 nM | TGI (NCI-H522 lung): 556 nM | GI50 (NCI/ADR-RES ovarian): 583 nM | TGI (NCI/ADR-RES ovarian): 1810 nM | GI50 (OVCAR-3 ovarian): 435 nM | TGI (OVCAR-3 ovarian): 1520 nM | GI50 (OVCAR-4 ovarian): 3810 nM | TGI (OVCAR-4 ovarian): 16300 nM | GI50 (OVCAR-5 ovarian): 1580 nM | TGI (OVCAR-5 ovarian): 15600 nM | GI50 (OVCAR-8 ovarian): 285 nM | TGI (OVCAR-8 ovarian): 1010 nM | GI50 (PC-3 prostate): 1730 nM | TGI (PC-3 prostate): 12500 nM | GI50 (RPMI-8226 leukemia): 830 nM | TGI (RPMI-8226 leukemia): 3690 nM | GI50 (RXF 393 renal): 554 nM | TGI (RXF 393 renal): 1290 nM | GI50 (SF-268 CNS): 2030 nM | TGI (SF-268 CNS): 6740 nM | GI50 (SF-295 CNS): 794 nM | TGI (SF-295 CNS): 2460 nM | GI50 (SF-539 CNS): 322 nM | TGI (SF-539 CNS): 988 nM | GI50 (SK-MEL-2 melanoma): 3690 nM | TGI (SK-MEL-2 melanoma): 13200 nM | GI50 (SK-MEL-28 melanoma): 17000 nM | TGI (SK-MEL-28 melanoma): > 100000 nM | GI50 (SK-MEL-5 melanoma): 3010 nM | TGI (SK-MEL-5 melanoma): 10000 nM | GI50 (SK-OV-3 ovarian): 7260 nM | TGI (SK-OV-3 ovarian): > 24200 nM | GI50 (SN12C renal): 1160 nM | TGI (SN12C renal): 3180 nM | GI50 (SNB-19 CNS): 8130 nM | TGI (SNB-19 CNS): > 100000 nM | GI50 (SNB-75 CNS): 1530 nM | TGI (SNB-75 CNS): 6020 nM | GI50 (SR leukemia): 216 nM | TGI (SR leukemia): 981 nM | GI50 (SW-620 colon): 2890 nM | TGI (SW-620 colon): 10100 nM | GI50 (T-47D breast): 1300 nM | TGI (T-47D breast): 6280 nM | GI50 (TK-10 renal): 350 nM | TGI (TK-10 renal): 989 nM | GI50 (U251 CNS): 301 nM | TGI (U251 CNS): 920 nM | GI50 (UACC-257 melanoma): 16100 nM | TGI (UACC-257 melanoma): > 100000 nM | GI50 (UACC-62 melanoma): 11200 nM | TGI (UACC-62 melanoma): > 59000 nM | GI50 (UO-31 renal): 187 nM | TGI (UO-31 renal): 363 nM
